Data on two compounds can be found in US9060520B2, “Domestic animal parasite-repellent device” (priority 2007, dated 2015).

The data set in a line: Release kinetics at 38° C. in oven, by daily weighing (Examples 5-8, 10, 11). Type of data set: physicochemical.

On to `CCOP(=S)(OCC)Oc1cc(C)nc(C(C)C)n1` [DIAZINON], for which, for the setting “EVA object with DIAZINON and GIN3, for the remaining 70%”, the “release as of the fourth day” value stood at 1.30 % per day. Further, the “amount released the first three days” value (EVA object with DIAZINON and GIN3 granules blended 40/60, FIG. 7) is recorded as 28%.

Regarding `C=CC(C)(O)CCC=C(C)C` (stereo not drawn) [LINALOL], the “peak of release of LINALOL relative to the bracelet, in absolute value” (EVA/PEBAX matrix 30% LINALOL vs PVC bracelet 15% LINALOL, oven 38° C., FIG. 11) was 16 times.
